Experimental data as given in patent publication US11654196B2, “Dosing regimens for echinocandin class compounds” (priority 2012, dated 2023).
Read-outs that look alike come from different tables or passages of the source. *1 amine or outer side, *2 acyl side, *3 side chain or, on linkers, in order; H or OH if unused. Where a SMILES comes first, the peptide text is derived from it. Bridges are numbered along the chain shown (N, C = ends). [ ]: non-standard residue; d: D form. The star is where a group is joined. hTyr(3S-OH,4S-OH,3'-OSO3H) = N[C@H](C(=O)O)[C@H](O)[C@@H](O)c1ccc(O)c(OS(=O)(=O)O)c1; Orn(4R-OH,5R-OH) = O=C([C@H](C[C@@H](O)[C@@H](O)N[*:3])N[*:1])[*:2]; Pro(3S-OH,4S-Me) = C[C@H]1CN[C@H](C(=O)O)[C@H]1O; X1 = CCCCCOc1ccc(-c2cc(-c3ccc(C(=O)*)cc3)no2)cc1; Gln(3R-OH) = NC(=O)C[C@@H](O)[C@H](N)C(=O)O; Hyp = O=C(O)[C@@H]1C[C@@H](O)CN1

Columns and labels:
[1] = Pharmacokinetics (oral bioavailability) following oral administration in beagle dogs; type: in vivo; design: key to Improvement (ratio of % oral bioavailability to saline): NI = no improvement in oral bioavailability in comparison to saline; settings: for % BA in saline: oral about 7-10 mg/kg, formulation 11 (saline)
Method: Echinocandin class compounds were administered to beagle dogs weighing approximately 6-10 kg. Each animal received the appropriate prepared test article in a single oral capsule dose at a target dose level of about 7-10 mg/kg. Immediately after dosing, each animal was offered 20 mL-30 mL of water orally (Groups 1-4) or 30 mL of water orally to assist in swallowing the capsule.
Animals were treated and blood samples were drawn and analyzed as provided in Example 1.
The bioavailability of each oral dose formulation was estimated by comparison to intravenous plasma concentration data in dogs from Example 1. The results provided in Table 3 show the oral bioavailability for the echinocandin class compound in saline (formulation 11), and the improvement over saline with the use of a formulation of the invention.

[2] = Pharmacokinetics following intravenous administration in beagle dogs; type: in vivo; settings: 1.4 mg/kg IV slow bolus
Method: Echinocandin class compounds were administered to beagle dogs weighing approximately 6-10 kg. Each compound was dosed at 1.4 mg/kg in aqueous saline (with or without 0.5% Tween) over course of 1-10 minutes. […] The dogs were fasted at least 12 hours prior to each dosing and offered food after the 4-hour blood sample was taken; water was withheld for 1 hour prior to and 4 hours following each dosing event. The dose for each animal was based on its most recent body weight. The test article was injected intravenously via a catheter placed in the cephalic vein as a slow bolus.
Blood was collected via the jugular vein. All blood samples (1 mL each) were collected into K3EDTA tubes. Following blood collection, the samples were immediately inverted several times and were held on wet ice pending centrifugation. The samples were centrifuged within 30 minutes of collection under refrigeration (˜5° C. for 10 minutes at 2000 g) to obtain plasma. The plasma was frozen immediately on dry ice after separation. The plasma samples were stored at approximately ˜70° C. until analysis.
Plasma (100 μL) was precipitated with 400 μL of 0.1% formic acid in acetonitrile containing the internal standard (100 ng/mL pneumocandin). The samples were then capped and vortexed for about 30 seconds followed by centrifugation at 14,000 rpm at room temperature for 10 minutes. Following centrifugation 200 μL of supernatant was transferred to plastic autosampler vials containing 200 μL of 0.1% formic acid in water and vortexed. Samples were then analyzed by LCMSMS.
All pharmacokinetic calculations were performed using WinNonlin version 4.1 (Pharsight Corp) by noncompartmental analysis.

[3] = Mouse, literature values; cited from earlier work
[4] = Rabbit, literature values; cited from earlier work
[5] = Rat, literature values; cited from earlier work
[6] = Man, literature values; cited from earlier work

Row | SMILES | % BA in saline [1] [%] | Improvement (ratio of % oral bioavailability to saline) ([1]; oral, formulation 1) | Improvement (ratio of % oral bioavailability to saline) ([1]; oral, formulation 5) | AUC [2] [ng·h/mL] | Cmax [2] [ng/mL] | Mean clearance [2] [mL/min/kg] | T1/2 [2] [h] | Volume of Distribution [2] [L/kg] | % BA ([1]; oral, formulation 1) | Improvement (ratio of % oral bioavailability to saline) ([1]; oral, formulation 7) | Improvement (ratio of % oral bioavailability to saline) ([1]; oral, formulation 6) | Improvement (ratio of % oral bioavailability to saline) ([1]; oral, formulation 3) | Half-life [3] [h] | Half-life [4] [h] | Half-life [5] [h] | Half-life [6] [h]
1 | CCCCCOc1ccc(-c2ccc(-c3ccc(C(=O)NC4CC(O)C(OCCOCCOC)NC(=O)C5C(O)C(C)CN5C(=O)C(C(C)O)NC(=O)C(C(O)C(O)c5ccc(O)cc5)NC(=O)C5CC(O)CN5C(=O)C(C(C)O)NC4=O)cc3)cc2)cc1 (centres unmarked) [Compound 19] | 5.74 | NI | NI | 96100 | 7700 | 0.202 | 18.9 | 0.331 | – | – | – | – | – | – | – | –
2 | CCCCCOc1ccc(-c2ccc(-c3ccc(C(=O)NC4CC(O)C(OCCOCCO)NC(=O)C5C(O)C(C)CN5C(=O)C(C(C)O)NC(=O)C(C(O)C(O)c5ccc(O)cc5)NC(=O)C5CC(O)CN5C(=O)C(C(C)O)NC4=O)cc3)cc2)cc1 (centres unmarked) [Compound 21] | 4.70 | 1.3 | NI | 113000 | 6740 | 0.145 | 28.9 | 0.361 | (6.42%) | NI | – | – | – | – | – | –
3 | CCCCCOc1ccc(-c2ccc(-c3ccc(C(=O)NC4CC(O)C(OCCOCCN)NC(=O)C5C(O)C(C)CN5C(=O)C(C(C)O)NC(=O)C(C(O)C(O)c5ccc(O)cc5)NC(=O)C5CC(O)CN5C(=O)C(C(C)O)NC4=O)cc3)cc2)cc1 (centres unmarked) [Compound 26] | – | – | NI | 67167 | 4080 | 0.219 | 33.7 | 0.627 | – | NI | NI | – | – | – | – | –
4 | CCCCCOc1ccc(-c2ccc(-c3ccc(C(=O)NC4CC(O)C(NCC[N+](C)(C)C)NC(=O)C5C(O)C(C)CN5C(=O)C(C(C)O)NC(=O)C(C(O)C(O)c5ccc(O)cc5)NC(=O)C5CC(O)CN5C(=O)C(C(C)O)NC4=O)cc3)cc2)cc1 (centres unmarked) [Compound 37] | – | NI | NI | 46200 | 2660 | 0.365 | 27.6 | 0.874 | – | NI | – | NI | – | – | – | –
5 | CCCCCOc1ccc(-c2ccc(-c3ccc(C(=O)NC4CC(O)C(NCCNCCO)NC(=O)C5C(O)C(C)CN5C(=O)C(C(C)O)NC(=O)C(C(O)C(O)c5ccc(O)cc5)NC(=O)C5CC(O)CN5C(=O)C(C(C)O)NC4=O)cc3)cc2)cc1 (centres unmarked) [Compound 39] | 5.15 | NI | NI | 50800 | 3630 | 0.377 | 21.0 | 0.687 | – | – | – | – | – | – | – | –
6 | CCCCCOc1ccc(-c2cc(-c3ccc(C(=O)N[C@H]4C[C@@H](O)[C@@H](O)NC(=O)[C@@H]5[C@@H](O)[C@@H](C)CN5C(=O)[C@H]([C@H](O)CC(N)=O)NC(=O)[C@H]([C@H](O)[C@@H](O)c5ccc(O)c(OS(=O)(=O)O)c5)NC(=O)[C@@H]5C[C@@H](O)CN5C(=O)[C@H]([C@@H](C)O)NC4=O)cc3)no2)cc1 [Micafungin, micafungin] (X1-[Orn(4R-OH,5R-OH)]T[Hyp][hTyr(3S-OH,4S-OH,3'-OSO3H)][Gln(3R-OH)][Pro(3S-OH,4S-Me)]; lactam 1-C) | – | – | – | – | – | – | – | – | – | – | – | – | 7 to 13 | 3 | 5 | 10 to 17
